Experiments:
[1] = test system: behavior of monkeys (MPTP-treated or untreated); assay: Behavioral effect in other monkeys (MPTP-treated or untreated); type: in vivo, monkey; settings: 0.3 mg/kg sc.
Method: Monkeys were made parkinsonian by intracarotid injection of the dopamine neuron toxin MPTP. Choreic and dystonic dyskinesias were induced in one monkey by chronic administration of L-DOPA followed by the selective D2 agonist PHNO. 3-(2-chloro-phenyl)-2-[2(6-diethylaminomethyl-pyridin-2-yl)-vinyl]-6-fluoro-3H-quinazolin-4-one (0.3 mg/kg sc.) reduced by 80% the choreic dyskinesia induced by dopamine agonist.

[2] = test system: choreic dyskinesia induced by dopamine agonist; assay: In vivo model for dyskinesias associated with dopamine agonist therapy (MPTP parkinsonian monkeys); settings: 0.3 mg/kg sc.; one MPTP parkinsonian monkey, dyskinesias induced by chronic L-DOPA followed by PHNO
Method: The following procedure may be used to assess the efficacy of an AMPA receptor antagonist in the treatment of dyskinesias associated with dopamine agonist therapy in the treatment of Parkinson's disease. Aged, female rhesus monkeys are rendered Parkinsonian as follows. Each monkey is first infused with 0.4 mg/kg MPTP (1-methyl-4-phenyl-1,2,3,6-tetrahydropyridine) via the right internal carotid artery. After being evaluated behaviorally for 3 to 6 weeks and being judged to have stable unilateral deficits, the animals receive a second MPTP injection via the left internal carotid artery. […] Once the monkeys are Parkinsonian, dyskinesias are induced over a period of approximately 3 to 6 weeks by treating the monkeys twice daily with subcutaneous injections of PHNO ((+)-4-propyl-9-hydroxynaphthoxazine) (a dopamine agonist). Dyskinesias are assessed 30 minutes after PHNO injection and every 30 minutes for the next 120 minutes (5 measurements) taking into account the following: type of dyskinesia (chorea, dystonia); intensity (0=absent; 1=mild; 2=moderate; 3=severe); and topography (arm, leg, trunk, generalized). The overall score (0-3) is averaged over the 5 measurements. Scoring is performed blindly from coded videotapes. An AMPA receptor antagonist is then administered together with the dopamine agonist at dosages ranging from 0.05 mg/kg to 1 mg/kg. […]

behavioral effect [1]: little or no behavioral effect
Compound: CCN(CC)Cc1cccc(C=Cc2nc3ccc(F)cc3c(=O)n2-c2ccccc2Cl)n1 [3-(2-chloro-phenyl)-2-[2-(6-diethylaminomethyl-pyridin-2-yl)-vinyl]-6-fluoro-3H-quinazolin-4-one]
reduction of choreic dyskinesia induced by dopamine agonist [2]: 80%
